Here are results for two compounds from patent US20250367098A1, “SUNSCREEN COMPOSITION FOR LACTOBACILLUS AND S. EPIDERMIDIS PROTECTION ON SKIN” (DSM IP Assets B.V., priority 2022, published 2025).

The test system of experiment [1] is Lactobacillus crispatus CIP 103604. Nature of the experiment: In vitro UV model: bacterial survival after UV irradiation (96-well, MPN method). In kind it is cell-based. Here is the method:
(§1) Accordingly, the inventors developed a targeted in vitro liquid model in 96-well microplate format to screen for UV protective actives (“UV filters”) on bacterial survival upon UV irradiation. The effects of selected UV irradiation conditions tested on microbial population of Lactobacillus crispatus (L. crispatus) and Staphylococcus epidermidis (S. epidermidis) in the presence of UV filter samples and combinations thereof were evaluated with the evolution of the residual microbial population after 4 h. The inhibition of bacterial growth, as consequence of UV irradiation, was compared to that of the same strain without UV irradiation and was expressed in percentage of survival (%). The microbial strains used in this study are listed below and their cultures are reconstituted according to the direction of the supplier collection center of the reference strain, CRBIP (Institut Pasteur Collection, France) or ATCC (American Type Culture Collection, USA): • Lactobacillus crispatus CIP 103604 • Staphylococcus epidermidis ATCC 12228 The 96-well plate was filled with the culture media (140 μL) and a calibrated inoculum (20 μL) of each bacterial strain was added to reach […] colony forming units per milliliter (cfu/mL) final concentration. After contamination, the sample was added (40 μL; 20% v/v) in triplicate and was thoroughly mixed to ensure a homogeneous distribution. Then, the plate was submitted to UV stress through an UV irradiator system (BioSun, Vilber Lourmat, France) according to the UV doses presented Table 1 below. The specific UV dose selected was between 10 and 49% survival of the microbial population. For the microbial population counts, aliquots of the contaminated samples of L. crispatus and S. epidermidis were serially diluted (4 decimal dilutions followed by 8 binary dilutions, in triplicate) in culture media on 96-wells plates with triphenyltetrazolium. Then, the plates were incubated at 37° C.±2,5° C. during 48 h taking into account the respiratory type of each strain. […] The use level of the single UV filter and combinations in the test formulations was calculated to obtain a predicted in vitro SPF value of 5.75+/−0.15 and 23.45+/−0.65, respectively (Table 2). […] The relative percentage of protection (%) was calculated from the difference between the survival percentages of samples and vehicle control (with UV irradiation) and divided to the survival percentage of the vehicle control. Consequently, the survival of each microbial population and the relative protection by the UV filter(s) were calculated and are summarized in the Table 2.

The subject of experiment [2] is Staphylococcus epidermidis ATCC 12228. The description is as above. In kind it is cell-based. Here is the method: as §1

On to `CCCCC(CC)COC(=O)C(C#N)=C(c1ccccc1)c1ccccc1` (stereo not shown) [Inv. 1, Octocrylene], for which, in experiment [1] (summary statement), the “survival rate of L. crispatus after UV radiation (in words)” value was “particularly good survival rate”. Further, the “protection of S. epidermidis from UV radiation (in words)” value in experiment [2] (summary statement) is “efficiently protecting”.
For the compound `CCCCC(CC)COC(=O)c1ccc(Nc2nc(Nc3ccc(C(=O)OCC(CC)CCCC)cc3)nc(Nc3ccc(C(=O)OCC(CC)CCCC)cc3)n2)cc1` (stereo not shown) [Inv. 3, Ethylhexyl Triazone], the “L. crispatus relative protection by the UV filter(s) vs. vehicle control” value in experiment [1] (50 SED (500 mJ/cm^2 UVA+UVB), sample at 20% v/v, after 4 h) is given as “(+100) %”. The “S. epidermidis relative protection by the UV filter(s) vs. vehicle control” value in experiment [2] (15 SED (150 mJ/cm^2 UVA+UVB), sample at 20% v/v, after 4 h) is on record as “(+59) %”.
